Results taken from patent US6132944A, “Photographic element containing high dye-yield couplers” (Eastman Kodak Company, priority 1999, dated 2000).
Read-outs that look alike come from different tables or passages of the source.

Key:
[1] = pKa by spectrophotometric titration in aqueous Triton X-100; type: physicochemical; conditions: for pKa: Table I; for pK1: first ionization, sulfonamide in conjugation with naphthalene; for pK2: second sulfonamide (in conjugation with the phenyl ring); for pKa (Sol. group): Table II
Method: In the following examples, the pKa values were determined by standard procedures using spectrophotometric titration of the compounds of interest. The spectrophotometric technique involves measuring the absorption spectra of the compound of interest in a range of buffer solutions. The absorption data (optical densities, ODobsd) can then be used to determine the corresponding pKa value(s) according to eq 1-3
ODobsd=ODHnA +ODHn-1A + (1)
=b[HnA]εHnA +b[Hn-1A]εHn-1A (2)
=b[total]fHnA εHnA +b[total]fHn-1A
Typically, the experimental constants (b and [total]) are combined with the extinction coefficient (ε) and expressed as the maximum optical density (ODmax) for a given species. Eq 3 then becomes,
=ODmaxHnA fHnA +ODmaxHn-1A fHn-1A (4)
The fraction of a given species (f) is a function of the pH and pKa values.
For example, for a system with one titratable proton eq 5-6,
Thus, the pKa and ODmax values can be determined from a set of XY pair data (pH, ODobsd) using a non linear least squares fit.
This technique relies on a difference in extinction coefficient between the species of interest at a given wavelength. This can be seen by inspection as a change in the absorption spectrum over a given pH range. In addition to this macroscopic data, (the experimental pKa values), the spectrophotometric technique can also provide microscopic information, i.e., information about the relationship between the individual titratable groups and the pKa values. In this manner, a pKa value may be attributed to titration of a particular group in a molecule, e.g., a solubilizing group.
The absorption spectra over a range of pH values and pKa values for the model sulfonamides such as Comp-11 and Comp-8 (defined for the examples hereinafter) as well as the coupler Comp-12 may be plotted. In model sulfonamide Comp-11 (pK 6.65), the optical density change resulting from ionization of the sulfonamide which is in conjugation with the naphthalene group may be pinpointed. Model sulfonamide Comp-8 comprises the entire solubilizing group pK1 7.03, pK2 10.00). […] Finally, in the spectrophotometric titration of the coupler Comp-12, the ionization of both sulfonamides in the solubilizing group as well as ionization of the coupling site pK1 6.85, pK2 9.85, pK3 10.84) can be seen.
In practice, a stock solution of the appropriate compound (1×10^-4 M) and Triton X-100 (1.2%) in water was prepared. The Triton X-100 (CAS Registry No. [9002-93-1], polyoxyethylene(10) isooctylcyclohexyl ether) was obtained from Aldrich Chemical Co. and used as received.
To 1.50 mL of the appropriate phosphate buffer (μ=0.75) were added 1.50 mL of the stock solution. The solution was agitated to ensure adequate mixing, and its absorption spectrum and pH were measured. A non linear least squares method was then used to fit the data to a one, two, or three pKa value model as appropriate.

[2] = Table II, cited from earlier work
[3] = sol group, aqueous Triton X-100

## CCCCCCCCCCCCCCCCS(=O)(=O)Nc1ccc(Cl)c(NC(=O)C(OC(=O)N(CC)c2ccc(N=Nc3ccc(C(=O)OCCCCCCCCCCCC)cc3)cc2)C(=O)C(C)(C)C)c1 (stereo not drawn) [Comp-1]
[1]; [3]
  pKa: 9.5

## CCCCCCCCCCCCCCCCNS(=O)(=O)c1ccc(Cl)c(NC(=O)C(OC(=O)N(CCCC)c2ccc(C=C(C#N)c3nc4ccccc4o3)c(C)c2)C(=O)c2ccc(OC)cc2)c1 (stereo not drawn) [Comp-2]
[1]; [3]
  pKa: 13

## CCCCCCCCCCCCCCCCNS(=O)(=O)c1ccc(Cl)c(NC(=O)C(OC(=O)N(CCCCCCCCCCCC)c2ccc(C=C(C#N)c3nc4ccccc4o3)c(C)c2)C(=O)c2ccc(OC)cc2)c1 (stereo not drawn) [Comp-3]
[1]; [3]
  pKa: 13

## CCCN(C(=O)OC(C(=O)Nc1ccccc1OC)C(=O)c1cccc(NS(=O)(=O)c2ccc(C)cc2)c1)c1ccc(C=C(C#N)c2nc3c(C)cc(C)cc3s2)c(C)c1 (stereo not drawn) [Comp-4]
[1]; inferred from Comp-5 and Comp-6
  pKa: 8.8

## CCCCCCCN(C(=O)OC(C(=O)Nc1ccccc1OC)C(=O)c1cccc(NS(=O)(=O)c2ccc(C)cc2)c1)c1ccc(C=C(C#N)c2nc3ccc(C)cc3o2)c(C)c1 (stereo not drawn) [Comp-5]
[1]; [3]
  pKa: 8.8

## CCCCN(C(=O)OC(C(=O)Nc1ccccc1OC)C(=O)c1cccc(NS(=O)(=O)c2ccc(C)cc2)c1)c1ccc(C=C(C#N)c2nc3cc(C(C)(C)CC(C)(C)C)ccc3o2)c(C)c1 (stereo not drawn) [Comp-6]
[1]; [3]
  pKa: 8.9

## CS(=O)(=O)c1ccc(O)cc1 [Comp-7]
[2]; in water (Bordwell and Cooper)
  pKa (Sol. group): 7.8

## CS(=O)(=O)Nc1ccc(S(=O)(=O)Nc2ccc(Cl)cc2)c2ccccc12 [Comp-8]
[1]
  pK1: 7.03
  pK2: 10.00

## CC(=O)c1cccc(NS(=O)(=O)c2ccc(C)cc2)c1 [Comp-9]
[1]; aqueous Triton X-100
  pKa (Sol. group): 8.7

## COc1ccccc1NC(=O)CC(=O)c1cccc(NS(=O)(=O)c2ccc(C)cc2)c1 [Comp-10]
[1]; Example 2
  pKa at the coupling site: 10.3
[1]; aqueous Triton X-100
  pKa (Sol. group): 8.8

## CN(C)S(=O)(=O)c1ccc(NS(C)(=O)=O)c2ccccc12 [Comp-11]
[1]; aqueous Triton X-100
  pKa (Sol. group): 6.6
[1]; sulfonamide in conjugation with the naphthalene group
  pK: 6.65

## CC(C)(C)C(=O)CC(=O)Nc1cc(NS(=O)(=O)c2ccc(NS(C)(=O)=O)c3ccccc23)ccc1Cl [Comp-12]
[1]; aqueous Triton X-100
  pKa (Sol. group): 6.8
[1]
  pK1: 6.85
  pK2: 9.85
[1]; third ionization
  pK3: 10.84

## CCCCCCCCCCCCCCCCS(=O)(=O)Nc1ccc(Cl)c(NC(=O)CC(=O)C(C)(C)C)c1 [Comp-16]
[1]; aqueous Triton X-100
  pKa (Sol. group): 9.4

## CCCCCCCCCCCCCCCCS(=O)(=O)Nc1ccc(Cl)c(NC(C)=O)c1 [Comp-17]
[1]; aqueous Triton X-100
  pKa (Sol. group): 9.5

## CNS(=O)(=O)c1ccccc1 [Comp-18]
[2]; in water (King)
  pKa (Sol. group): 11.43

## CCCCCCCCCCCCCCCCNS(=O)(=O)c1ccccc1 [Comp-19]
[1]; aqueous Triton X-100
  pKa (Sol. group): 13.0

## CC(=O)Nc1cc(NS(=O)(=O)c2ccc(O)cc2)ccc1Cl [Comp-20]
[1]; aqueous Triton X-100
  pKa (Sol. group): 8.1

## Cc1cc(N(C(=O)OC(C(=O)Nc2cc(NS(=O)(=O)c3ccc(O)cc3)ccc2Cl)C(=O)C(C)(C)C)C2CCCC2)ccc1C=C(C#N)c1nc2cc(C(C)(C)CC(C)(C)C)ccc2o1 (stereo not drawn) [Comp-21]
[1]; [3]
  pKa: 8.8

## Cc1cc(N(C(=O)OC(C(=O)Nc2cc(NS(=O)(=O)c3ccc(O)c(NS(C)(=O)=O)c3)ccc2Cl)C(=O)C(C)(C)C)C2CCCC2)ccc1C=C(C#N)c1nc2cc(C(C)(C)CC(C)(C)C)ccc2o1 (stereo not drawn) [Inv-1]
[1]; [3]
  pKa: 7.2

## COc1ccc(C(=O)C(OC(=O)N(c2ccc(C=C(C#N)c3nc4cc(C(C)(C)CC(C)(C)C)ccc4o3)c(C)c2)C2CCCC2)C(=O)Nc2cc(NS(=O)(=O)c3ccc(O)cc3)ccc2Cl)cc1 (stereo not drawn) [Inv-3]
[1]; [3]
  pKa: 8.7

## CCN(C(=O)OC(C(=O)Nc1cc(NS(=O)(=O)c2c(NS(C)(=O)=O)ccc3ccccc23)ccc1Cl)C(=O)c1ccc(OC)cc1)c1ccc(C=C(C#N)c2nc3cc(C(C)(C)CC(C)(C)C)ccc3o2)c(C)c1 (stereo not drawn) [Inv-4]
[1]; [3]
  pKa: 6.5

## CCN(C(=O)OC(C(=O)Nc1cc(NS(=O)(=O)c2ccc(NS(C)(=O)=O)c3ccccc23)ccc1Cl)C(=O)c1ccc(OC)cc1)c1ccc(C=C(C#N)c2nc3cc(C(C)(C)CC(C)(C)C)ccc3o2)c(C)c1 (stereo not drawn) [Inv-5]
[1]; [3]
  pKa: 6.7

## Cc1cc(N(C(=O)OC(C(=O)Nc2cc(NS(=O)(=O)c3ccc(NS(C)(=O)=O)cc3O)ccc2Cl)C(=O)C(C)(C)C)C2CCCC2)ccc1C=C(C#N)c1nc2cc(C(C)(C)CC(C)(C)C)ccc2o1 (stereo not drawn) [Inv-6]
[1]; [3]
  pKa: 7.4

## CCN(C(=O)OC(C(=O)Nc1cc(NS(=O)(=O)c2ccc(NS(C)(=O)=O)cc2)ccc1Cl)C(=O)c1ccc(OC)cc1)c1ccc(C=C(C#N)c2nc3cc(C(C)(C)CC(C)(C)C)ccc3o2)c(C)c1 (stereo not drawn) [Inv-7]
[1]; [3]
  pKa: 7.9

## CCN(C(=O)OC(C(=O)Nc1cc(NS(=O)(=O)c2ccccc2NS(C)(=O)=O)ccc1Cl)C(=O)c1ccc(OC)cc1)c1ccc(C=C(C#N)c2nc3cc(C(C)(C)CC(C)(C)C)ccc3o2)c(C)c1 (stereo not drawn) [Inv-8]
[1]; [3]
  pKa: 6.1

## Cc1cc(N(C(=O)OC(C(=O)Nc2cc(NS(=O)(=O)c3cccc(NS(C)(=O)=O)c3)ccc2Cl)C(=O)C(C)(C)C)C2CCCC2)ccc1C=C(C#N)c1nc2cc(C(C)(C)CC(C)(C)C)ccc2o1 (stereo not drawn) [Inv-9]
[1]; [3]
  pKa: 7.9

## COc1ccc(C(=O)C(OC(=O)N(c2ccc(C=C(C#N)c3nc4cc(C(C)(C)CC(C)(C)C)ccc4o3)c(C)c2)C2CCCC2)C(=O)Nc2cc(NS(=O)(=O)c3ccccc3NS(C)(=O)=O)ccc2Cl)cc1 (stereo not drawn) [Inv-10]
[1]; [3]
  pKa: 6.1
